Assay results published in patent publication US20200171056A1, “SULFONYLUREA COMPOUNDS IN THE TREATMENT OF DISEASE ASSOCIATED WITH UV-INDUCED DAMAGE” (CeMM - Forschungszentrum für Molekulare Medizin GmbH, priority 2017, published 2020).

Assays:
Type in all cases: cell-based, human
[1] = system: CPDs in genomic DNA of HAP1 cell lines; assay: Dot blot for cyclobutane pyrimidine dimers; settings: HAP1 WT and ΔXPA, 0.5 mM, 15 J/M^2 (FIG. 7C-D)
Method: A. Dose-response curve of WT and ΔXPA cells treated with or without 0.5 mM acetohexamide for the indicated times, followed by UV irradiation. Survival was assessed after 3 days, using CellTiter-Glo. […] Error bars indicate SEM (n=3). B. Clonogenic survival of WT and ΔXPA cells treated with 0.5 mM acetohexamide for 6 hours or left untreated, then exposed to illudin S for 10 days, as indicated. C. WT and ΔXPA cells treated with or without 0.5 mM acetohexamide for the indicated times, followed by 15 J/M^2 irradiation and analyzed by dot blot for the presence of CPDs in genomic DNA. DNA was counterstained with methylene blue (MB) as a loading control. D. Quantification of the intensities of C.
The amount of cyclobutane pyrimidine dimers (CPDs) in DNA was quantified using an immuno-dot blot assay with the CPD-specific monoclonal antibody TDM-2 (Cosmo Bio). Genomic DNA was extracted using QIAamp DNA mini kit (Qiagen), then the genomic DNA was denatured in TE buffer (10 mM Tris-CL and 1 mM EDTA, pH 7.5) by boiling for 5 minutes and subsequently 50 ng of genomic DNA was dot-blotted in triplicate onto a nitrocellulose membrane. The DNA was then fixed by baking the membrane for 2 hours at 80° C. […] Signals were detected using Amersham ECL (GE Healthcare Life Sciences DNA was counterstained with methylene blue as a loading control.

[2] = system: DNA repair knockout HAP1 cell lines; assay: Percentage of rescue in panel of 20 DNA repair-deficient cell lines after UV
Excerpt: FIG. 3. Loss of MUTYH mimics acetohexamide function A. Bubble plot displaying the percentage of rescue, defined as the difference in survival of a given cell line treated with acetohexamide compared to untreated, following UV irradiation. The light grey, dark grey bubbles highlight ΔMUTYH, ΔXPA […], and black bubbles indicate the rest of the knockout cell lines and WT HAP1. The size of the bubbles indicates the significance as log10 (p-value). BER: base excision repair; NER: nucleotide excision repair; DSBR; double-strand break repair; MMR: mis-match repair; FA: Fanconi aneamia; DR; direct reversal; TLS; translesion synthesis. B. Survival of WT and MUTYH-deficient (ΔMUTYH) cells with or without 0.5 mM acetohexamide treatment, followed by UV irradiation, as assessed after 3 days using CellTitre-Glo. Loss of MUTYH protein was confirmed by immunoblotting using an anti-MUTYH antibody. ACTIN was used as a loading control. C. Deletion of MUTYH in WT HAP1 or an XPA-deficient background was confirmed by immunoblotting using an anti-MUTYH antibody. TUBULIN was used as a loading control. D. Clonogenic survival of WT, ΔXPA or ΔXPA-MUTYH cells irradiated with UV at the indicated doses or left untreated. Cells were fixed and stained 10 days later.
Since acetohexamide enhanced the clearance of CPDs in NER-deficient cells, it was speculated that its mode-of-action could be via one the known DNA excision repair pathways. Thus, a panel of 20 DNA repair-deficient cell lines was prepared using CRISPR-Cas9, representing all DNA repair pathways. Pol kappa (POLK) was selected to represent translesion synthesis (TLS) polymerases since it has roles in the repair synthesis step of NER. Subsequently, these cell lines (as well as two wildtype controls) were treated with acetohexamide and exposed to UV irradiation (FIG. 3A). […]
The DNA repair knockout cell lines were generated in collaboration with Horizon Genomics. […] Subsequently, the genomic DNA was isolated using Direct PCR-Cell Kit (PeqLab) and the region targeted by the gRNA was PCR amplified and analyzed by Sanger sequencing. […]

ΔXPA-MUTYH HAP1 cells = assay: Colony formation of double knockout after UV irradiation; settings: 0.5 mM for 6 hours, 15 J/M^2 UV, 10 days (FIG. 4C)
Method: A. WT HAP1 cells were treated with or without 0.5 mM acetohexamide for 6 hours, then released into compound-free media for the indicated time points and immunoblotted with an anti-MUTYH antibody. ACTIN was used as a loading control. B. WT HAP1 cells were either treated with 0.5 mM acetohexamide alone or with 10 μM of the proteasome inhibitor MG132 for 6 hours and analyzed by immunoblotting using an anti-MUTYH antibody. C. Left panel: colony formation of the WT, ΔXPA or ΔXPA-MUTYH HAP1 cells treated with or without 0.5 mM acetohexamide for 6 hours, followed by 15 J/M^2 UV irradiation and then kept in culture for 10 days. Right panel: Macroscopic colonies were stained with crystal violet and quantified. D. WT, ΔXPA or ΔXPA-MUTYH HAP1 cells were treated with 15 J/M^2 UV or left untreated, then kept in culture for the indicated recovery times and analyzed by dot blot for the presence of CPDs within genomic DNA. […] F. Survival of WT and ΔMULE HAP1 cells exposed to UV irradiation at different doses and assessed after 3 days, using CellTitre-Glo.
Cells were treated with UV at different doses with or without drug pre-treatment and then seeded into 6-well plates, at a density of 1,000 cells/well, in duplicates for 2 weeks until visible colonies were formed. […] Next, the staining solution was removed and the wells were washed, imaged and quantified using CellProfiler.

CC(=O)c1ccc(S(=O)(=O)NC(=O)NC2CCCCC2)cc1 [acetohexamide]
clearance of CPDs, dot blot [1]: same observation was also made for HAP1 cell lines
protective effect against UV-induced damage (percentage of rescue), knockout cell lines and wildtype ([2]; all knockout lines other than ΔMUTYH (FIG. 3A)): comparable protective effect against UV-induced damage on all the knockout cell lines tested (and also to wildtype cells)
protective effect on NER-deficient cell lines ([2]; knock out cell lines absent of XPA, XPC, ERCC8 (CSA), ERCC6 (CSB) or XPV (POLH)): general protective effect on NER-deficient cell lines
protective effect against UV-induced damage (percentage of rescue), cells lacking MUTYH ([2]; ΔMUTYH (FIG. 3A)): no effect on cells lacking MUTYH
survival of double knockout ΔXPA-MUTYH upon UV treatment (ΔXPA-MUTYH HAP1 cells): did not lead to a further increase in survival upon UV treatment
